According to patent publication US9365522B2, “Pyrazole amide derivative” (AMGEN INC., priority 2015, dated 2016):

Target: T1, human RORγ-LBD (Homo sapiens, UniProt P51449)
T1 construct: made in house; host or cells: E. coli (BL-21)
T1 sequence (P51449 262-518): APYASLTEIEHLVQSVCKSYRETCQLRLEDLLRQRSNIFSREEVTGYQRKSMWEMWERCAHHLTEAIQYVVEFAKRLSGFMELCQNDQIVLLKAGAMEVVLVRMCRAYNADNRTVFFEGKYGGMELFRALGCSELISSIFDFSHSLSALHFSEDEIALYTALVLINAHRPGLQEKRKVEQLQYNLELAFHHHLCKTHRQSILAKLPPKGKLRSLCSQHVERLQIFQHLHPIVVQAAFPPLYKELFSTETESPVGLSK
Assay: ROR gamma coactivator peptide recruitment Alphascreen assay (RORγ-LBD binding to GRIP1 coactivator peptide)
Assay type: biochemical
Settings: 5 nM human RORγ-LBD, 30 nM 7-β-hydroxycholesterol, 50 nM biotinylated GRIP1 coactivator peptide, overnight incubation at room temperature; read-out: result (pIC50, RORγ coactivator peptide recruitment Alphascreen assay) (converted)
How it was run: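 His/Flag-tagged human RORγ-LBD (aa 262-518, E. coli-expressed, 5 nM) with agonist 7-β-hydroxycholesterol (30 nM) and biotinylated GRIP1 LXXLL peptide (50 nM) in HEPES pH 7.4 buffer, 2.5% DMSO. Compound 1-in-2 dilutions; Alphascreen bead signal read after overnight incubation at room temperature; pIC50 calculated.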

| SMILES | IC50 [nM] |
| --- | --- |
| Cc1cc(Cl)c(C(=O)CN(CC2(F)CC2)C(=O)c2cnn([C@H]3CC[C@](C)(C(=O)O)CC3)c2C(F)(F)F)c(Cl)n1 [Example 703, trans-4-(4-((2-(2,4-dichloro-6-methyl-3-pyridinyl)-2-oxoethyl)((1-fluorocyclopropyl)methyl)carbamoyl)-5-(trifluoromethyl)-1H-pyrazol-1-yl)-1-methylcyclohexanecarboxylic acid] | 70.8 |
| Cc1cc(Cl)c(C(=O)CN(CCC(C)C)C(=O)c2cnn([C@H]3CC[C@](C)(C(=O)O)CC3)c2C(F)(F)F)c(Cl)c1 [Example 704, trans-4-(4-((2-(2,6-dichloro-4-methylphenyl)-2-oxoethyl)(3-methylbutyl)carbamoyl)-5-(trifluoromethyl)-1H-pyrazol-1-yl)-1-methylcyclohexanecarboxylic acid] | 2.45 |
| C[C@H]1CC[C@H](CN(CC(=O)c2c(Cl)cncc2Cl)C(=O)c2cnn([C@H]3CC[C@](C)(C(=O)O)CC3)c2C(F)(F)F)O1 [Example 705, trans-4-(4-((2-(3,5-dichloro-4-pyridinyl)-2-oxoethyl)(((2R,5S)-5-methyltetrahydro-2-furanyl)methyl)carbamoyl)-5-(trifluoromethyl)-1H-pyrazol-1-yl)-1-methylcyclohexanecarboxylic acid] | 58.9 |
| C[C@@H]1CC[C@@H](CN(CC(=O)c2c(Cl)cncc2Cl)C(=O)c2cnn([C@H]3CC[C@](C)(C(=O)O)CC3)c2C(F)(F)F)O1 [Example 706, trans-4-(4-((2-(3,5-dichloro-4-pyridinyl)-2-oxoethyl)(((2S,5R)-5-methyltetrahydro-2-furanyl)methyl)carbamoyl)-5-(trifluoromethyl)-1H-pyrazol-1-yl)-1-methylcyclohexanecarboxylic acid] | 32.4 |
| Cc1cc(Cl)c(C(=O)CN(CC2CC2)C(=O)c2cnn([C@H]3CC[C@](C)(C(=O)O)CC3)c2C(F)(F)F)c(Cl)c1 [Example 707, trans-4-(4-((cyclopropylmethyl)(2-(2,6-dichloro-4-methylphenyl)-2-oxoethyl)carbamoyl)-5-(trifluoromethyl)-1H-pyrazol-1-yl)-1-methylcyclohexanecarboxylic acid] | 6.17 |
| Cc1cc(Cl)c(C(=O)CN(CC2(C)CCCC2)C(=O)c2cnn([C@H]3CC[C@](C)(C(=O)O)CC3)c2C(F)(F)F)c(Cl)c1 [Example 709, trans-4-(4-((2-(2,6-dichloro-4-methylphenyl)-2-oxoethyl)((1-methylcyclopentyl)methyl)carbamoyl)-5-(trifluoromethyl)-1H-pyrazol-1-yl)-1-methylcyclohexanecarboxylic acid] | 0.891 |
| C[C@]1(C(=O)O)CC[C@H](n2ncc(C(=O)N(CC(=O)c3c(Cl)cncc3Cl)CC3CC3)c2C(F)(F)F)CC1 [Example 710, trans-4-(4-((cyclopropylmethyl) (2-(3,5-dichloro-4-pyridinyl)-2-oxoethyl)carbamoyl)-5-(trifluoromethyl)-1H-pyrazol-1-yl)-1-methylcyclohexanecarboxylic acid] | 27.5 |
| CC1(CN(CC(=O)c2c(Cl)cncc2Cl)C(=O)c2cnn([C@H]3CC[C@](C)(C(=O)O)CC3)c2C(F)(F)F)CCCC1 [Example 711, trans-4-(4-((2-(3,5-dichloro-4-pyridinyl)-2-oxoethyl)((1-methylcyclopentyl)methyl)carbamoyl)-5-(trifluoromethyl)-1H-pyrazol-1-yl)-1-methylcyclohexanecarboxylic acid] | 2.04 |
| C[C@]1(C(=O)O)CC[C@H](n2ncc(C(=O)N(CC(=O)c3c(Cl)cncc3Cl)CC3(F)CC4(CC4)C3)c2C(F)(F)F)CC1 [Example 712, trans-4-(4-((2-(3,5-dichloro-4-pyridinyl)-2-oxoethyl)((5-fluorospiro[2.3]hex-5-yl)methyl)carbamoyl)-5-(trifluoromethyl)-1H-pyrazol-1-yl)-1-methylcyclohexanecarboxylic acid] | 12.9 |
| C[C@]1(C(=O)O)CC[C@H](n2ncc(C(=O)N(CC(=O)c3c(Cl)cccc3Cl)CC3(F)CC4(CC4)C3)c2C(F)(F)F)CC1 [Example 713, (1r,4r)-4-(4-((2-(2,6-dichlorophenyl)-2-oxoethyl)((5-fluorospiro[2.3]hexan-5-yl)methyl)carbamoyl)-5-(trifluoromethyl)-1H-pyrazol-1-yl)-1-methylcyclohexanecarboxylic acid] | 4.07 |
| Cc1cc(Cl)c(C(=O)CN(C(=O)c2cnn([C@H]3CC[C@](C)(C(=O)O)CC3)c2C(F)(F)F)[C@H]2C[C@@H]3[C@H](C2)C3(C)C)c(Cl)n1 [Example 714, trans-4-(4-((2-(2,4-dichloro-6-methyl-3-pyridinyl)-2-oxoethyl)((1R,3r,5S)-6,6-dimethylbicyclo[3.1.0]hex-3-yl)carbamoyl)-5-(trifluoromethyl)-1H-pyrazol-1-yl)-1-methylcyclohexanecarboxylic acid] | 3.55 |
| Cc1ncc(Cl)c(C(=O)CN(CC(C)(C)C)C(=O)c2cnn([C@H]3CC[C@](C)(C(=O)O)CC3)c2C(F)(F)F)c1Cl [Example 715, trans-4-(4-((2-(3,5-dichloro-2-methyl-4-pyridinyl)-2-oxoethyl)(2,2-dimethylpropyl)carbamoyl)-5-(trifluoromethyl)-1H-pyrazol-1-yl)-1-methylcyclohexanecarboxylic acid] | 10.5 |
| CC1(CN(CC(=O)c2c(Cl)cc(F)cc2Cl)C(=O)c2cnn([C@H]3CC[C@@](C)(C(=O)O)CC3)c2C(F)(F)F)CC1 [Example 716, trans-4-(4-((2-(2,6-dichloro-4-fluorophenyl)-2-oxoethyl)((1-methylcyclopropyl)methyl)carbamoyl)-5-(trifluoromethyl)-1H-pyrazol-1-yl)-1-methylcyclohexanecarboxylic acid] | 2.69 |
| Cc1cc(Cl)c(C(=O)CN(CC2(C)CC2)C(=O)c2cnn([C@H]3CC[C@@](C)(C(=O)O)CC3)c2C(F)(F)F)c(Cl)c1 [Example 717] | 2.09 |
| Cc1cc(Cl)c(C(=O)CN(CC2CCCC2)C(=O)c2cnn([C@H]3CC[C@@](C)(C(=O)O)CC3)c2C(F)(F)F)c(Cl)c1 [Example 718, trans-4-(4-((cyclopentylmethyl)(2-(2,6-dichloro-4-methylphenyl)-2-oxoethyl)carbamoyl)-5-(trifluoromethyl)-1H-pyrazol-1-yl)-1-methylcyclohexanecarboxylic acid] | 1.74 |
| CC(C)(C)CN(CC(=O)c1c(Cl)cncc1Cl)C(=O)c1cnn([C@H]2CC[C@H](CC(=O)O)CC2)c1C(F)(F)F [Example 719, (trans-4-(4-((2-(3,5-dichloro-4-pyridinyl)-2-oxoethyl)(2,2-dimethylpropyl)carbamoyl)-5-(trifluoromethyl)-1H-pyrazol-1-yl)cyclohexyl)acetic acid] | 6.03 |
| CC(C)(C)CN(CC(=O)c1c(Cl)cncc1Cl)C(=O)c1cnn([C@H]2CC[C@@H](CC(=O)O)CC2)c1C(F)(F)F [Example 720, (cis-4-(4-((2-(3,5-dichloro-4-pyridinyl)-2-oxoethyl)(2,2-dimethylpropyl)carbamoyl)-5-(trifluoromethyl)-1H-pyrazol-1-yl)cyclohexyl)acetic acid] | 74.1 |
| Cc1cc(Cl)c(C(=O)CN(C(=O)c2cnn([C@H]3CC[C@](C)(C(=O)O)CC3)c2C(F)(F)F)[C@H]2CCC23CCC3)c(Cl)c1 [Example 721, trans-4-(4-((2-(2,6-dichloro-4-methylphenyl)-2-oxoethyl)((1S)-spiro[3.3]hept-1-yl)carbamoyl)-5-(trifluoromethyl)-1H-pyrazol-1-yl)-1-methylcyclohexanecarboxylic acid] | 0.832 |
| Cc1cc(Cl)c(C(=O)CN(C(=O)c2cnn([C@H]3CC[C@](C)(C(=O)O)CC3)c2C(F)(F)F)[C@@H]2CCC23CCC3)c(Cl)c1 [Example 722, trans-4-(4-((2-(2,6-dichloro-4-methylphenyl)-2-oxoethyl)((1R)-spiro[3.3]hept-1-yl)carbamoyl)-5-(trifluoromethyl)-1H-pyrazol-1-yl)-1-methylcyclohexanecarboxylic acid] | 9.55 |
| Cc1cc(Cl)c(C(=O)CN(C[C@@H]2CC(C)(C)O2)C(=O)c2cnn([C@H]3CC[C@](C)(C(=O)O)CC3)c2C(F)(F)F)c(Cl)c1 [Example 723, trans-4-(4-((2-(2,6-dichloro-4-methylphenyl)-2-oxoethyl)(((2S)-4,4-dimethyl-2-oxetanyl)methyl)carbamoyl)-5-(trifluoromethyl)-1H-pyrazol-1-yl)-1-methylcyclohexanecarboxylic acid] | 10 |
| Cc1cc(Cl)c(C(=O)CN(C[C@H]2CC(C)(C)O2)C(=O)c2cnn([C@H]3CC[C@](C)(C(=O)O)CC3)c2C(F)(F)F)c(Cl)c1 [Example 724, trans-4-(4-((2-(2,6-dichloro-4-methylphenyl)-2-oxoethyl)(((2R)-4,4-dimethyl-2-oxetanyl)methyl)carbamoyl)-5-(trifluoromethyl)-1H-pyrazol-1-yl)-1-methylcyclohexanecarboxylic acid] | 6.03 |
| Cc1cc(Cl)c(C(=O)CN(C[C@@]2(C)CCCO2)C(=O)c2cnn([C@H]3CC[C@](C)(C(=O)O)CC3)c2C(F)(F)F)c(Cl)c1 [Example 725, trans-4-(4-((2-(2,6-dichloro-4-methylphenyl)-2-oxoethyl)(((2S)-2-methyltetrahydro-2-furanyl)methyl)carbamoyl)-5-(trifluoromethyl)-1H-pyrazol-1-yl)-1-methylcyclohexanecarboxylic acid] | 4.47 |
